PubChem BioAssay (NCI)
“And” between values parts separate entries of the source, which are not always exact repeats. Identical values can stand only once.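 Results reflect a 48-hour exposure of cells in 96-well plates to compound at five concentrations. GI50 is the concentration that inhibits growth by half. TGI: concentration producing complete growth inhibition.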

Assays:
Experiment in all cases: inhibition of tumour cell growth, NCI panel, 48 h
NCI-H23 lung = test system: NCI-H23 lung
UACC-62 melanoma = test system: UACC-62 melanoma
NCI-H522 lung = test system: NCI-H522 lung
HL-60(TB) leukemia = test system: HL-60(TB) leukemia
UO-31 renal = test system: UO-31 renal
DU-145 prostate = test system: DU-145 prostate
SNB-19 CNS = test system: SNB-19 CNS
CAKI-1 renal = test system: CAKI-1 renal
SN12C renal = test system: SN12C renal
MCF7 breast = test system: MCF7 breast
MDA-MB-435 = test system: MDA-MB-435
TK-10 renal = test system: TK-10 renal
SK-OV-3 ovarian = test system: SK-OV-3 ovarian
SK-MEL-2 melanoma = test system: SK-MEL-2 melanoma
CCRF-CEM leukemia = test system: CCRF-CEM leukemia
T-47D breast = test system: T-47D breast
COLO 205 colon = test system: COLO 205 colon
BT-549 breast = test system: BT-549 breast
KM12 colon = test system: KM12 colon
HCT-116 colon = test system: HCT-116 colon
OVCAR-5 ovarian = test system: OVCAR-5 ovarian
HCT-15 colon = test system: HCT-15 colon
HT29 colon = test system: HT29 colon
OVCAR-8 ovarian = test system: OVCAR-8 ovarian
SW-620 colon = test system: SW-620 colon
HS 578T breast = test system: HS 578T breast
A498 renal = test system: A498 renal
A549 NSCLC = test system: A549 NSCLC
MALME-3M melanoma = test system: MALME-3M melanoma
K-562 leukemia = test system: K-562 leukemia
RXF 393 renal = test system: RXF 393 renal
EKVX NSCLC = test system: EKVX NSCLC
RPMI-8226 leukemia = test system: RPMI-8226 leukemia
SF-268 CNS = test system: SF-268 CNS
NCI-H226 lung = test system: NCI-H226 lung
SK-MEL-5 melanoma = test system: SK-MEL-5 melanoma
M14 melanoma = test system: M14 melanoma
NCI-H460 lung = test system: NCI-H460 lung
LOX IMVI melanoma = test system: LOX IMVI melanoma
HCC-2998 colon = test system: HCC-2998 colon
MOLT-4 leukemia = test system: MOLT-4 leukemia
SNB-75 CNS = test system: SNB-75 CNS
NCI/ADR-RES ovarian = test system: NCI/ADR-RES ovarian
ACHN renal = test system: ACHN renal
HOP-92 NSCLC = test system: HOP-92 NSCLC
UACC-257 melanoma = test system: UACC-257 melanoma
SF-539 CNS = test system: SF-539 CNS
786-0 renal = test system: 786-0 renal
OVCAR-4 ovarian = test system: OVCAR-4 ovarian
PC-3 prostate = test system: PC-3 prostate
IGROV1 ovarian = test system: IGROV1 ovarian
OVCAR-3 ovarian = test system: OVCAR-3 ovarian
SK-MEL-28 melanoma = test system: SK-MEL-28 melanoma
SF-295 CNS = test system: SF-295 CNS
SR leukemia = test system: SR leukemia
MDA-MB-231 breast = test system: MDA-MB-231 breast
HOP-62 NSCLC = test system: HOP-62 NSCLC

## CN1C(=O)[C@]23SSC1(C)C(=O)N2[C@H]1Nc2ccccc2C1([C@@]12c4ccccc4N[C@@H]1N1C(=O)C4(C)SS[C@]1(C(=O)N4C)[C@H]2O)[C@@H]3O (stereo partly specified)
NCI-H23 lung
  GI50: 37.4 nM
  TGI: 101 nM
UACC-62 melanoma
  GI50: 137 nM and 420 nM
  TGI: 398 nM and 1820 nM
NCI-H522 lung
  GI50: 28.8 nM and 179 nM
  TGI: 61.9 nM and 395 nM
HL-60(TB) leukemia
  GI50: 235 nM and 254 nM
  TGI: 782 nM and 1530 nM
UO-31 renal
  GI50: 45.2 nM and 192 nM
  TGI: 122 nM and 367 nM
DU-145 prostate
  GI50: 46.1 nM and 299 nM
  TGI: 208 nM and 1440 nM
SNB-19 CNS
  GI50: 455 nM and 1330 nM
  TGI: 1580 nM and 4340 nM
CAKI-1 renal
  GI50: 48.8 nM and 154 nM
  TGI: 170 nM and 396 nM
SN12C renal
  GI50: 107 nM and 407 nM
  TGI: 1170 nM and 1910 nM
MCF7 breast
  GI50: 10.7 nM and 45.7 nM
  TGI: 223 nM and 1220 nM
MDA-MB-435
  GI50: 96.7 nM and 265 nM
  TGI: 413 nM and 804 nM
TK-10 renal
  GI50: 54.5 nM and 503 nM
  TGI: 128 nM and 906 nM
SK-OV-3 ovarian
  GI50: 293 nM and 1670 nM
  TGI: 751 nM and 4050 nM
SK-MEL-2 melanoma
  GI50: 265 nM and 718 nM
  TGI: 540 nM and 2160 nM
CCRF-CEM leukemia
  GI50: 73.9 nM and 203 nM
  TGI: 1560 nM and 2210 nM
T-47D breast
  GI50: 22 nM and 184 nM
  TGI: 89.9 nM and 595 nM
COLO 205 colon
  GI50: 28.3 nM and 153 nM
  TGI: 61.3 nM and 395 nM
BT-549 breast
  GI50: 218 nM and 1490 nM
  TGI: 486 nM and 2970 nM
KM12 colon
  GI50: 140 nM and 1210 nM
  TGI: 478 nM and 3410 nM
HCT-116 colon
  GI50: 55.8 nM and 97.4 nM
  TGI: 229 nM and 556 nM
OVCAR-5 ovarian
  GI50: 360 nM and 1440 nM
  TGI: 756 nM and 4210 nM
HCT-15 colon
  GI50: 21.7 nM and 143 nM
HT29 colon
  GI50: 27.6 nM and 187 nM
  TGI: 86.5 nM and 454 nM
OVCAR-8 ovarian
  GI50: 34.8 nM and 165 nM
  TGI: 75.1 nM and 359 nM
SW-620 colon
  GI50: 66.7 nM and 144 nM
  TGI: 434 nM and 660 nM
HS 578T breast
  GI50: 465 nM and 1580 nM
  TGI: 1730 nM and 5400 nM
A498 renal
  GI50: 384 nM and 2330 nM
  TGI: 678 nM and 3810 nM
A549 NSCLC
  TGI: 1100 nM and 6850 nM
MALME-3M melanoma
  GI50: 22.7 nM and 50.5 nM
  TGI: 53.9 nM and 184 nM
K-562 leukemia
  GI50: 39.7 nM and 84.7 nM
  TGI: 2880 nM and 10500 nM
RXF 393 renal
  GI50: 33 nM and 170 nM
  TGI: 65.7 nM and 318 nM
EKVX NSCLC
  GI50: 64.4 nM and 606 nM
  TGI: 504 nM and 3690 nM
RPMI-8226 leukemia
  GI50: 53.6 nM and 257 nM
  TGI: 221 nM and 882 nM
SF-268 CNS
  GI50: 309 nM and 1960 nM
  TGI: 1260 nM and 5580 nM
NCI-H226 lung
  GI50: 290 nM
  TGI: 807 nM
SK-MEL-5 melanoma
  TGI: 242 nM and 2010 nM
M14 melanoma
  GI50: 48.2 nM and 175 nM
  TGI: 163 nM and 451 nM
NCI-H460 lung
  GI50: 129 nM and 326 nM
  TGI: 1490 nM and 1140 nM
LOX IMVI melanoma
  GI50: 30.9 nM and 165 nM
  TGI: 70.8 nM and 394 nM
HCC-2998 colon
  GI50: 79.1 nM and 567 nM
  TGI: 297 nM and 1940 nM
MOLT-4 leukemia
  GI50: 65.3 nM and 214 nM
  TGI: 590 nM and 1370 nM
SNB-75 CNS
  GI50: 209 nM and 1960 nM
  TGI: 544 nM and 3500 nM
NCI/ADR-RES ovarian
  GI50: 121 nM and 549 nM
  TGI: 588 nM and 3740 nM
ACHN renal
  GI50: 37.1 nM and 57.7 nM
  TGI: 100 nM and 508 nM
HOP-92 NSCLC
  GI50: 307 nM and 302 nM
  TGI: 640 nM and 674 nM
UACC-257 melanoma
  GI50: 34.8 nM and 208 nM
  TGI: 94.3 nM and 488 nM
SF-539 CNS
  GI50: 68.7 nM and 277 nM
  TGI: 264 nM and 762 nM
786-0 renal
  GI50: 44.8 nM and 185 nM
  TGI: 108 nM and 363 nM
OVCAR-4 ovarian
  GI50: 30.2 nM and 164 nM
  TGI: 73.1 nM and 322 nM
PC-3 prostate
  GI50: 185 nM and 662 nM
  TGI: 720 nM and 3010 nM
IGROV1 ovarian
  GI50: 238 nM and 290 nM
  TGI: 570 nM and 864 nM
OVCAR-3 ovarian
  GI50: 20.2 nM and 183 nM
  TGI: 57.1 nM and 426 nM
SK-MEL-28 melanoma
  GI50: 33.9 nM and 187 nM
  TGI: 76.6 nM and 419 nM
SF-295 CNS
  GI50: 275 nM and 2380 nM
  TGI: 555 nM and 4690 nM
SR leukemia
  GI50: 46.5 nM and 210 nM
  TGI: 417 nM and 1070 nM
MDA-MB-231 breast
  GI50: 54.9 nM and 321 nM
  TGI: 184 nM and 827 nM
HOP-62 NSCLC
  GI50: 219 nM and 1400 nM
  TGI: 576 nM and 3300 nM
